Source: patent US20250288652A1, “BACTERIOPHAGE LYSINE, CHIMERA THEREOF AND APPLICATION THEREOF” (priority 2021, published 2025)
Where “and” joins values, the source holds several entries; their conditions need not be identical. Equal entries are not always repeated.

Legend:
Assay type in all cases: cell-based
Propionibacterium acnes [1] = test: MIC of selected lysin after single-step purification, Example 8; conditions: single-step purified lysin
Description: Express PACL 10, 390, 391, 392, 403 and 404 according to the method of Examples 1-4, and perform the following single-step purification: put Escherichia coli BL21 (DE3) containing each recombinant expression plasmid in the self-induction medium incubate at 37° C., 300 rpm for 3 hours, then at 18° C., 300 rpm for 16-18 hours. Cells were collected by centrifugation and lysed by homogenizatoin under high pressure. Clarified lysate from 1 L of E. coli culture medium expressing the protein of interest was loaded onto a 26 mm/200 mm column containing 70 mL of purification resin. The lysin was purified according to the conditions in Table 8-1, and the purity determination of the lyase after single-step purification is shown in FIG. 5. These lysin are used to determine the minimal inhibitory concentration (MIC).
The minimal inhibitory concentration (MIC) determination method is as follows. Propionibacterium acnes is streaked on Fortified Clostridium Agar (Fortified Clostridium Medium RCM with 1.5% agar, RCM was prepared according to the revised recipe, per liter—10 g acid hydrolyzed casein, 10 g beef extract, 3 g yeast extract, 5 g D—glucose, 5 g sodium chloride, 3 g sodium acetate, 0.5 g L-cysteine hydrochloride). Plates were incubated anaerobically at 37° C. for 72 hours. The inoculum for MIC determination was first prepared by resuspending single clones from RCA in 0.9% saline to an OD600 of 0.05, corresponding to 10^7 colony-forming units per milliliter (cfu/mL). The suspension was diluted 20-fold in RCM to an inoculum of 5*10^5 cfu/mL. Two-fold serial dilutions of each lyase were prepared in 0.9% saline and added not to exceed one-tenth of the total culture volume. Cultures were grown anaerobically at 37° C. for 48-72 hours. The MIC is the lowest concentration of lyase at which no growth of P. acnes can be observed with the naked eye.

Propionibacterium acnes [2] = test: Minimum inhibitory concentration (MIC) determination, Example 6; conditions: Cutibacterium acnes
Description: (§1) The minimal inhibitory concentration (MIC) determination method is as follows. First prepare a colony suspension in 0.9% saline to an OD600 of 0.05 to prepare an inoculum, which corresponds to 10^7 colony-forming units per mL (cfu/mL). The suspension was diluted 20 times in agar-free enhanced Clostridium medium (RCM) to an inoculum of 5*10^5 cfu/mL. Prepare 2-fold serial dilutions of PACL10 or vancomycin with 0.9% saline and add no more than one-tenth of the total culture. Cultures were grown anaerobically at 37° C. for 3 days. The MIC is the lowest concentration of PACL10 or vancomycin at which no growth of P. acnes can be observed with the naked eye. The minimum bactericidal concentration (MBC) was determined by subculturing the above cultures on enhanced Clostridium agar (RCA) plates containing 0.1% Tween-80. MBC is the lowest concentration of PACL10 or vancomycin at which no P. acnes colonies are seen on the enhanced Clostridium agar (RCA) plate.

Propionibacterium acnes [3] = test: Minimum bactericidal concentration (MBC) determination, Example 6; conditions: Cutibacterium acnes
Description: as §1

CN(C)[C@@H]1C(O)=C(C(N)=O)C(=O)[C@@]2(O)C(O)=C3C(=O)c4c(O)cccc4[C@@](C)(O)[C@H]3C[C@@H]12 [Tetracycline, reference compound]
8 µg/mL: MIC (Propionibacterium acnes [1]; Cutibacterium acnes, clade IA2, strain 33, read-out: MIC of selected lyases relative to Propionibacterium acnes) | MIC of selected lyases relative to Propionibacterium acnes (Propionibacterium acnes [1]; clade IA1, strain 1) | MIC of selected lyases relative to Propionibacterium acnes (Propionibacterium acnes [1]; clade IA1, strain 5) | MIC of selected lyases relative to Propionibacterium acnes (Propionibacterium acnes [1]; clade IA1, strain 7) | MIC of selected lyases relative to Propionibacterium acnes (Propionibacterium acnes [1]; clade IA2, strain 10) | MIC of selected lyases relative to Propionibacterium acnes (Propionibacterium acnes [1]; clade IA2, strain 17) | MIC of selected lyases relative to Propionibacterium acnes (Propionibacterium acnes [1]; clade II, strain 34)

CN[C@H](CC(C)C)C(=O)N[C@H]1C(=O)N[C@@H](CC(N)=O)C(=O)N[C@H]2C(=O)N[C@H]3C(=O)N[C@H](C(=O)N[C@H](C(=O)O)c4cc(O)cc(O)c4-c4cc3ccc4O)[C@H](O)c3ccc(c(Cl)c3)Oc3cc2cc(c3O[C@@H]2O[C@H](CO)[C@@H](O)[C@H](O)[C@H]2O[C@H]2C[C@](C)(N)[C@H](O)[C@H](C)O2)Oc2ccc(cc2Cl)[C@H]1O [Vancomycin, reference compound]
1 µg/mL and 0.673 µM: MIC (Propionibacterium acnes [2]; clade IA1, strain 5) | MIC (Propionibacterium acnes [2]; clade IA1, strain 15) | MIC (Propionibacterium acnes [2]; clade IA1, strain 27) | MIC (Propionibacterium acnes [2]; clade IB, strain 13) | MBC (Propionibacterium acnes [3]; clade IA1, strain 5) | MBC (Propionibacterium acnes [3]; clade IA1, strain 7) | MBC (Propionibacterium acnes [3]; clade IA1, strain 15) | MBC (Propionibacterium acnes [3]; clade IA1, strain 27) | MBC (Propionibacterium acnes [3]; clade IA2, strain 10) | MBC (Propionibacterium acnes [3]; clade IA2, strain 14) | MBC (Propionibacterium acnes [3]; clade IA2, strain 33A) | MBC (Propionibacterium acnes [3]; clade IB, strain 13)
0.5 µg/mL and 0.337 µM: MIC (Propionibacterium acnes [2]; clade IA1, strain 1) | MIC (Propionibacterium acnes [2]; clade IA1, strain 7) | MIC (Propionibacterium acnes [2]; clade IA2, strain 10) | MIC (Propionibacterium acnes [2]; clade IA2, strain 14) | MIC (Propionibacterium acnes [2]; clade IA2, strain 17) | MIC (Propionibacterium acnes [2]; clade IA2, strain 31) | MIC (Propionibacterium acnes [2]; clade IA2, strain 33A) | MIC (Propionibacterium acnes [2]; clade II, strain 34A) | MBC (Propionibacterium acnes [3]; clade IA1, strain 1) | MBC (Propionibacterium acnes [3]; clade IA2, strain 17) | MBC (Propionibacterium acnes [3]; clade IA2, strain 31) | MBC (Propionibacterium acnes [3]; clade II, strain 34A)

B1: PACL391: chimeric lysin, amino acid sequence SEQ ID NO: 259 (protein)
chain: MTFIQAAHHSSGSNLPPTRVVIHATCPELGFPRASAKGRAVSTARYFQSAISGGSAHYVVDVGETVQCLAEDVIAWHAPPNSRSLGIEICADGGSATSFKNPNVRYSRAQWLSPQVWPAVLRAAALTRQMCQKYGIPVTKLSASDLKAGKKGICGHVDVSNAWHQSDHDDPGPDFPWAEFMAAVKGGATNPGGEVRTPGQQDTKPSVPTPSLTEIGDQDMNGCYYNLNSKTRTYLIFDSRSGFYHEFSQGNGNGPMSPDYVNPIAKGWDTGSWPAISPGHAKVLKAALDKVRKGI
modifications: PACL391
16 µg/mL: MIC of selected lyases relative to Propionibacterium acnes (Propionibacterium acnes [1]; clade IA1, strain 5) | MIC of selected lyases relative to Propionibacterium acnes (Propionibacterium acnes [1]; clade IA2, strain 33)
32 µg/mL: MIC of selected lyases relative to Propionibacterium acnes (Propionibacterium acnes [1]; clade IA2, strain 10) | MIC of selected lyases relative to Propionibacterium acnes (Propionibacterium acnes [1]; clade IA2, strain 17)
8 µg/mL: MIC of selected lyases relative to Propionibacterium acnes (Propionibacterium acnes [1]; clade IA1, strain 1) | MIC of selected lyases relative to Propionibacterium acnes (Propionibacterium acnes [1]; clade IA1, strain 7) | MIC of selected lyases relative to Propionibacterium acnes (Propionibacterium acnes [1]; clade II, strain 34)

B2: PACL392: chimeric lysin, amino acid sequence SEQ ID NO: 260 (protein)
chain: MTFIQAAHHSSGSNLPPTRVVIHATCPELGFPRASAKGRAVSTARYFQSAISGGSAHYVVDVGETVQCLAEDVIAWHAPPNSRSLGIEICADGGSATSFKNPNVRYSRAQWLSPQVWPAVLRAAALTRQMCQKYGIPVTKLSASDLKAGKKGICGHVDVSNAWHQSDHDDPGPDFPWAEFMAAVKGGATNPGGPGQQDTKPSVPTPSLTEIGDQDMNGCYYNLNSKTRTYLIFDSRSGFYHEFSQGNGNGPMSPDYVNPIAKGWDTGSWPAISPGHAKVLKAALDKVRKGI
modifications: PACL392
8 µg/mL: MIC of selected lyases relative to Propionibacterium acnes (Propionibacterium acnes [1]; clade IA1, strain 1) | MIC of selected lyases relative to Propionibacterium acnes (Propionibacterium acnes [1]; clade IA1, strain 5) | MIC of selected lyases relative to Propionibacterium acnes (Propionibacterium acnes [1]; clade IA1, strain 7) | MIC of selected lyases relative to Propionibacterium acnes (Propionibacterium acnes [1]; clade IA2, strain 33) | MIC of selected lyases relative to Propionibacterium acnes (Propionibacterium acnes [1]; clade II, strain 34)
16 µg/mL: MIC of selected lyases relative to Propionibacterium acnes (Propionibacterium acnes [1]; clade IA2, strain 10) | MIC of selected lyases relative to Propionibacterium acnes (Propionibacterium acnes [1]; clade IA2, strain 17)

B3: PACL404: chimeric lysin, amino acid sequence SEQ ID NO: 272 (protein)
chain: MTFIQAAHHSSGSNLPPTRVVIHATCPEMGFPKASAKGRAVSTARYFQSASSGGSAHYVVDIGETVQCLGENVIAWHAPPNAHSLGIEICADGGSATSFSNPKVRYTRAQWLSPQVWPAVLRAAALTRKMCSKYGIPVVKLSASDLKAGKKGICGHVDVSNAFHQSDHDDPGPDFPWAEFMAAVKGGTTTQEDEDEMKEAGGPGQQDTKPSVPTPSLTEIGDQDMNGCYYNLNSKTRTYLIFDSRSGFYHEFSQGNGNGPMSPDYVNPIAKGWDTGSWPAISPGHAKVLKAALDKVRKGI
modifications: PACL404
8 µg/mL: MIC of selected lyases relative to Propionibacterium acnes (Propionibacterium acnes [1]; clade IA1, strain 1) | MIC of selected lyases relative to Propionibacterium acnes (Propionibacterium acnes [1]; clade IA2, strain 17) | MIC of selected lyases relative to Propionibacterium acnes (Propionibacterium acnes [1]; clade IA2, strain 33) | MIC of selected lyases relative to Propionibacterium acnes (Propionibacterium acnes [1]; clade II, strain 34)
16 µg/mL: MIC of selected lyases relative to Propionibacterium acnes (Propionibacterium acnes [1]; clade IA1, strain 5) | MIC of selected lyases relative to Propionibacterium acnes (Propionibacterium acnes [1]; clade IA1, strain 7) | MIC of selected lyases relative to Propionibacterium acnes (Propionibacterium acnes [1]; clade IA2, strain 10)

B4: PACL390: chimeric lysin, amino acid sequence SEQ ID NO: 258 (protein)
chain: MTFIQAAHHSSGSNLPPTRVVIHATCPEMGFPKASAKGRAVSTARYFQSASSGGSAHYVVDIGETVQCLGENVIAWHAPPNAHSLGIEICADGGSATSFSNPKVRYTRAQWLSPQVWPAVLRAAALTRKMCSKYGIPVVKLSASDLKAGKKGICGHVDVSNAFHQSDHDDPGPDFPWAEFMAAVKGGPGQQDTKPSVPTPSLTEIGDQDMNGCYYNLNSKTRTYLIFDSRSGFYHEFSQGNGNGPMSPDYVNPIAKGWDTGSWPAISPGHAKVLKAALDKVRKGI
modifications: PACL390
8 µg/mL: MIC of selected lyases relative to Propionibacterium acnes (Propionibacterium acnes [1]; clade IA1, strain 1) | MIC of selected lyases relative to Propionibacterium acnes (Propionibacterium acnes [1]; clade IA1, strain 5) | MIC of selected lyases relative to Propionibacterium acnes (Propionibacterium acnes [1]; clade IA1, strain 7) | MIC of selected lyases relative to Propionibacterium acnes (Propionibacterium acnes [1]; clade IA2, strain 10) | MIC of selected lyases relative to Propionibacterium acnes (Propionibacterium acnes [1]; clade IA2, strain 17) | MIC of selected lyases relative to Propionibacterium acnes (Propionibacterium acnes [1]; clade IA2, strain 33) | MIC of selected lyases relative to Propionibacterium acnes (Propionibacterium acnes [1]; clade II, strain 34)
